System: MOLM-13 cells
Test: In vitro proliferation (Cell Titer Glo, 6 days) of Compound 51 in combination with gilteritinib, midostaurin, idarubicin or decitabine, MOLM-13
Assay type: cell-based, human
Parameters: key to maxR call (synergy/antagonism), combination with Gilteritinib on MOLM-13 cell proliferation / Synergy/antagonism call (maxR test), MOLM-13 Cell Proliferation: synergy is indicated by “**”; antagonism is indicated by “*”; no asterisk: absence of any asterisk indicates an additive effect
Protocol: 3) In Vitro Proliferation—Menin-MLL Inhibitor in Combination with FLT3 Inhibitor (Gilteritinib or Midostaurin), DNA Intercalating Agent (Idarubicin) or Hypomethylating Agent (Decitabine)
The effect of Compound 51 in combination with gilteritinib, midostaurin, idarubicin or decitabine was determined in proliferation assays.
AML cell lines MOLM-13, OCI-AML3 and MV4-11 were purchased from DSMZ. MOLM-13 were grown in RPMI medium supplemented with 10% Fetal Bovine Serum (FBS) and 1% penicillin/streptomycin. MV4-11 cells were grown in IMDM medium supplemented with 10% FBS and 1% penicillin/streptomycin. OCI-AML3 cells were cultured in 80-90% alpha-MEM (with or without ribo- and deoxyribonucleosides)+10-20% FBS. All cell lines were cultured at 37° C. in 5% CO2 atmosphere.
AML cell lines (10-20×10^3 cells/well) were seeded in 96-well plates and grown for 6 days in serum (10%)-containing medium in the presence or absence of inhibitors at the indicated concentrations. Proliferation was analyzed by means of a Cell Titer Glo assay using the […] (Promega, Madison, WI, USA), according to the manufacturer's instructions. Data are mean with standard deviation from two to four independent experiments in technical triplicates.
R-based Biochemically Intuitive Generalized Loewe (BIGL) model implemented with a highest single agent (HSA) null model. Specifically, the BIGL methodology was applied to calculate drug-drug interactions (Van der Borght, K., Tourny, A., Bagdziunas, R. et al. BIGL: Biochemically Intuitive Generalized Loewe null model for prediction of the expected combined effect compatible with partial agonism and antagonism. Sci Rep 7, 17935 (2017); Thas, O., Tourny, A., Verbist, B., Hawinkel, S., Nazarov, M., Mutambanengwe, K., & Bijnens, L. Statistical detection of synergy: New methods and a comparative study. Pharmaceutical Statistics (2021)).
Synergy matrix results of the BIGL analysis of the cell line data with HSA as mean model calculated on the basis of the cellular metabolic activity using Cell Titer-Glo assay. Bootstrap confidence intervals are indicated. Effect sizes and their confidence intervals are shown. […] No significant average effect if zero is included in the interval.

[1] = Compound 51 0.01 μm, Gilteritinib 0.01 μM
[2] = Compound 51 0.05 μm + Decitabine 0.015 μM
[3] = Compound 51 0.05 μm + Decitabine 0.15 μM
[4] = Compound 51 0.05 μm + Idarubicin 0.001 μM
[5] = Compound 51 0.05 μm + Midostaurin 0.006 μM

CC(=O)N1CCC(CN2CC[C@@H](Cc3cn(-c4ccc(F)cc4C(=O)N(C)C(C)C)c4cncc(C)c34)C2)CC1 [Compound 51]
Effect size (BIGL, HSA null model), MOLM-13 Cell Proliferation (Compound 51 0.0001 μm + Idarubicin 0.0005 μM): −0.05
Effect size (BIGL, HSA null model), MOLM-13 Cell Proliferation (Compound 51 0.0001 μm + Idarubicin 0.001 μM): −0.02
Effect size (BIGL, HSA null model), MOLM-13 Cell Proliferation (Compound 51 0.0001 μm + Idarubicin 0.0025 μM): 0.07
Effect size (BIGL, HSA null model), MOLM-13 Cell Proliferation (Compound 51 0.0001 μm + Idarubicin 0.005 μM): −0.1
Effect size (BIGL, HSA null model), MOLM-13 Cell Proliferation (Compound 51 0.0001 μm + Idarubicin 0.05 μM): 0.03
Effect size (BIGL, HSA null model), MOLM-13 Cell Proliferation (Compound 51 0.0001 μm + Idarubicin 0.5 μM): 0.02
Effect size (BIGL, HSA null model), MOLM-13 Cell Proliferation (Compound 51 0.0001 μm + Midostaurin 0.0012 μM): −0.07
Effect size (BIGL, HSA null model), MOLM-13 Cell Proliferation (Compound 51 0.0001 μm + Midostaurin 0.006 μM): −0.02
Effect size (BIGL, HSA null model), MOLM-13 Cell Proliferation (Compound 51 0.0001 μm + Midostaurin 0.025 μM): 0.05
Effect size (BIGL, HSA null model), MOLM-13 Cell Proliferation (Compound 51 0.0001 μm + Midostaurin 0.05 μM): −0.06
Effect size (BIGL, HSA null model), MOLM-13 Cell Proliferation (Compound 51 0.0001 μm + Midostaurin 0.1 μM): −0.04
Effect size (BIGL, HSA null model), MOLM-13 Cell Proliferation (Compound 51 0.0001 μm + Midostaurin 0.5 μM): −0.02
Effect size (BIGL, HSA null model), MOLM-13 Cell Proliferation (Compound 51 0.001 μm + Decitabine 0.0015 μM): −0.03
Effect size (BIGL, HSA null model), MOLM-13 Cell Proliferation (Compound 51 0.001 μm + Decitabine 0.015 μM): −0.07
Effect size (BIGL, HSA null model), MOLM-13 Cell Proliferation (Compound 51 0.001 μm + Decitabine 0.15 μM): −0.03
Effect size (BIGL, HSA null model), MOLM-13 Cell Proliferation (Compound 51 0.001 μm + Decitabine 1.5 μM): −0.03
Effect size (BIGL, HSA null model), MOLM-13 Cell Proliferation (Compound 51 0.001 μm + Decitabine 3 μM): −0.02
Effect size (BIGL, HSA null model), MOLM-13 Cell Proliferation (Compound 51 0.001 μm + Idarubicin 0.0005 μM): −0.03
Effect size (BIGL, HSA null model), MOLM-13 Cell Proliferation (Compound 51 0.001 μm + Idarubicin 0.001 μM): −0.07
Effect size (BIGL, HSA null model), MOLM-13 Cell Proliferation (Compound 51 0.001 μm + Idarubicin 0.0025 μM): 0.04
Effect size (BIGL, HSA null model), MOLM-13 Cell Proliferation (Compound 51 0.001 μm + Idarubicin 0.005 μM): −0.1
Effect size (BIGL, HSA null model), MOLM-13 Cell Proliferation (Compound 51 0.001 μm + Idarubicin 0.05 μM): 0.02
Effect size (BIGL, HSA null model), MOLM-13 Cell Proliferation (Compound 51 0.001 μm + Idarubicin 0.5 μM): 0.02
Effect size (BIGL, HSA null model), MOLM-13 Cell Proliferation (Compound 51 0.001 μm + Midostaurin 0.0012 μM): −0.03
Effect size (BIGL, HSA null model), MOLM-13 Cell Proliferation (Compound 51 0.001 μm + Midostaurin 0.006 μM): −0.02
Effect size (BIGL, HSA null model), MOLM-13 Cell Proliferation (Compound 51 0.001 μm + Midostaurin 0.025 μM): 0.07
Effect size (BIGL, HSA null model), MOLM-13 Cell Proliferation (Compound 51 0.001 μm + Midostaurin 0.05 μM): −0.06
Effect size (BIGL, HSA null model), MOLM-13 Cell Proliferation (Compound 51 0.001 μm + Midostaurin 0.1 μM): −0.04
Effect size (BIGL, HSA null model), MOLM-13 Cell Proliferation (Compound 51 0.001 μm + Midostaurin 0.5 μM): −0.02
Effect size (BIGL, HSA null model), combination with Gilteritinib on MOLM-13 cell proliferation (Compound 51 0.001 μm, Gilteritinib 0.0005 μM): −0.01
Effect size (BIGL, HSA null model), combination with Gilteritinib on MOLM-13 cell proliferation (Compound 51 0.001 μm, Gilteritinib 0.005 μM): −0.06
Effect size (BIGL, HSA null model), combination with Gilteritinib on MOLM-13 cell proliferation (Compound 51 0.001 μm, Gilteritinib 0.01 μM): −0.1
Effect size (BIGL, HSA null model), combination with Gilteritinib on MOLM-13 cell proliferation (Compound 51 0.001 μm, Gilteritinib 0.05 μM): −0.02
Effect size (BIGL, HSA null model), combination with Gilteritinib on MOLM-13 cell proliferation (Compound 51 0.001 μm, Gilteritinib 0.1 μM): 0.02
Effect size (BIGL, HSA null model), combination with Gilteritinib on MOLM-13 cell proliferation (Compound 51 0.001 μm, Gilteritinib 1 μM): −0.01
Effect size (BIGL, HSA null model), MOLM-13 Cell Proliferation (Compound 51 0.01 μm + Decitabine 0.0015 μM): 0
Effect size (BIGL, HSA null model), MOLM-13 Cell Proliferation (Compound 51 0.01 μm + Decitabine 0.015 μM): −0.09
Effect size (BIGL, HSA null model), MOLM-13 Cell Proliferation (Compound 51 0.01 μm + Decitabine 0.15 μM): −0.16
Effect size (BIGL, HSA null model), MOLM-13 Cell Proliferation (Compound 51 0.01 μm + Decitabine 1.5 μM): −0.05
Effect size (BIGL, HSA null model), MOLM-13 Cell Proliferation (Compound 51 0.01 μm + Decitabine 3 μM): −0.02
Effect size (BIGL, HSA null model), MOLM-13 Cell Proliferation (Compound 51 0.01 μm + Idarubicin 0.0005 μM): −0.35
Effect size (BIGL, HSA null model), MOLM-13 Cell Proliferation (Compound 51 0.01 μm + Idarubicin 0.001 μM): −0.73
Effect size (BIGL, HSA null model), MOLM-13 Cell Proliferation (Compound 51 0.01 μm + Idarubicin 0.0025 μM): −0.26
Effect size (BIGL, HSA null model), MOLM-13 Cell Proliferation (Compound 51 0.01 μm + Idarubicin 0.005 μM): −0.11
Effect size (BIGL, HSA null model), MOLM-13 Cell Proliferation (Compound 51 0.01 μm + Idarubicin 0.05 μM): 0.02
Effect size (BIGL, HSA null model), MOLM-13 Cell Proliferation (Compound 51 0.01 μm + Idarubicin 0.5 μM): 0.02
Effect size (BIGL, HSA null model), MOLM-13 Cell Proliferation (Compound 51 0.01 μm + Midostaurin 0.0012 μM): 0.01
Effect size (BIGL, HSA null model), MOLM-13 Cell Proliferation (Compound 51 0.01 μm + Midostaurin 0.006 μM): −0.06
Effect size (BIGL, HSA null model), MOLM-13 Cell Proliferation (Compound 51 0.01 μm + Midostaurin 0.025 μM): 0.1
Effect size (BIGL, HSA null model), MOLM-13 Cell Proliferation (Compound 51 0.01 μm + Midostaurin 0.05 μM): −0.06
Effect size (BIGL, HSA null model), MOLM-13 Cell Proliferation (Compound 51 0.01 μm + Midostaurin 0.1 μM): −0.04
Effect size (BIGL, HSA null model), MOLM-13 Cell Proliferation (Compound 51 0.01 μm + Midostaurin 0.5 μM): −0.02
Effect size (BIGL, HSA null model), combination with Gilteritinib on MOLM-13 cell proliferation (Compound 51 0.01 μm, Gilteritinib 0.0005 μM): 0.01
Effect size (BIGL, HSA null model), combination with Gilteritinib on MOLM-13 cell proliferation (Compound 51 0.01 μm, Gilteritinib 0.005 μM): −0.08
Effect size (BIGL, HSA null model), combination with Gilteritinib on MOLM-13 cell proliferation [1]: −0.25
maxR call (synergy/antagonism), combination with Gilteritinib on MOLM-13 cell proliferation [1]: **
Effect size (BIGL, HSA null model), combination with Gilteritinib on MOLM-13 cell proliferation (Compound 51 0.01 μm, Gilteritinib 0.05 μM): −0.09
Effect size (BIGL, HSA null model), combination with Gilteritinib on MOLM-13 cell proliferation (Compound 51 0.01 μm, Gilteritinib 0.1 μM): 0.1
Effect size (BIGL, HSA null model), combination with Gilteritinib on MOLM-13 cell proliferation (Compound 51 0.01 μm, Gilteritinib 1 μM): −0.01
Effect size (BIGL, HSA null model), MOLM-13 Cell Proliferation (Compound 51 0.05 μm + Decitabine 0.0015 μM): −0.03
Effect size (BIGL, HSA null model), MOLM-13 Cell Proliferation [2]: −0.13
Synergy/antagonism call (maxR test), MOLM-13 Cell Proliferation [2]: **
Effect size (BIGL, HSA null model), MOLM-13 Cell Proliferation [3]: −0.32
Synergy/antagonism call (maxR test), MOLM-13 Cell Proliferation [3]: **
Effect size (BIGL, HSA null model), MOLM-13 Cell Proliferation (Compound 51 0.05 μm + Decitabine 1.5 μM): −0.05
Effect size (BIGL, HSA null model), MOLM-13 Cell Proliferation (Compound 51 0.05 μm + Decitabine 3 μM): −0.03
Effect size (BIGL, HSA null model), MOLM-13 Cell Proliferation (Compound 51 0.05 μm + Idarubicin 0.0005 μM): −0.1
Effect size (BIGL, HSA null model), MOLM-13 Cell Proliferation [4]: −0.41
Synergy/antagonism call (maxR test), MOLM-13 Cell Proliferation [4]: **
Effect size (BIGL, HSA null model), MOLM-13 Cell Proliferation (Compound 51 0.05 μm + Idarubicin 0.0025 μM): −0.23
Effect size (BIGL, HSA null model), MOLM-13 Cell Proliferation (Compound 51 0.05 μm + Idarubicin 0.005 μM): −0.11
Effect size (BIGL, HSA null model), MOLM-13 Cell Proliferation (Compound 51 0.05 μm + Idarubicin 0.05 μM): 0.02
Effect size (BIGL, HSA null model), MOLM-13 Cell Proliferation (Compound 51 0.05 μm + Idarubicin 0.5 μM): 0.02
Effect size (BIGL, HSA null model), MOLM-13 Cell Proliferation (Compound 51 0.05 μm + Midostaurin 0.0012 μM): −0.03
Effect size (BIGL, HSA null model), MOLM-13 Cell Proliferation [5]: −0.21
Synergy/antagonism call (maxR test), MOLM-13 Cell Proliferation [5]: **
Effect size (BIGL, HSA null model), MOLM-13 Cell Proliferation (Compound 51 0.05 μm + Midostaurin 0.025 μM): −0.14
Effect size (BIGL, HSA null model), MOLM-13 Cell Proliferation (Compound 51 0.05 μm + Midostaurin 0.05 μM): 0.08
Effect size (BIGL, HSA null model), MOLM-13 Cell Proliferation (Compound 51 0.05 μm + Midostaurin 0.1 μM): −0.04
Effect size (BIGL, HSA null model), MOLM-13 Cell Proliferation (Compound 51 0.05 μm + Midostaurin 0.5 μM): −0.02
Effect size (BIGL, HSA null model), combination with Gilteritinib on MOLM-13 cell proliferation (Compound 51 0.05 μm, Gilteritinib 0.0005 μM): −0.03

Reference: patent US20260191835A1, “COMBINATIONS COMPRISING A MENIN-MLL INHIBITOR AND AT LEAST ONE OTHER THERAPEUTIC AGENT” (JANSSEN PHARMACEUTICA NV, priority 2022, published 2026)
